Columns and labels:
BAEC = test: Doxorubicin uptake by cultured BAEC; format: cell-based; conditions: lipid 10 μM, doxorubicin 50 μM simultaneously, 60 minutes, uptake in the absence of lipid = 100%
Method: A range of glycosphingolipids and sphingomyelins having different structures were also studied. The data are summarised in the following tables, and are expressed as a percentage (+/−SD) of doxorubicin uptake by cultured BAEC, as compared to drug uptake in the absence of lipid. Glycosphingolipids and sphingomyelins were used at 10 μM. Doxorubicin was administered simultaneously at 50 μM. After 60 minutes, cells were washed and cellular doxorubicin contents were determined fluorimetrically. Background fluorescence was subtracted from all values and all data were corrected for protein contents. Each data point is the average value of at least three independent experiments, but some lipids were assayed in 10 or more independent experiments. For each experiment 4, 6 or 8 wells with cells were treated identically and the data were then averaged (=1 experiment).

A431 cells [1] = test: Cellular doxorubicin uptake; format: cell-based, human; conditions: 15 μM co-administered lipid, within an hour, control conditions = 100%
Method: A431 (adherent human epidermoid carcinoma cells) were cultured in Dulbecco's modified Eagle medium (DMEM), supplemented with 10% (v/v) fetal calf serum, 100 units/ml penicillin, 100 μg/ml streptomycin and 4 mM L-glutamine. Cells were sub-cultured once a week by trypsinization and maintained in a water-saturated atmosphere of 5% CO2 at 37° C. All studies were performed at a confluency of 80-90%.
For cellular doxorubicin accumulation measurements, A431 cells were cultured in flat-bottom 96-well plates. At confluency, cells were changed to serum-free medium and exposed to 50 μM free or to 20 μM liposomal doxorubicin. After extensive washing, cells were lysed in 100 μl of 1% (w/v) Triton X-100. Native fluorescence intensities were then measured by a Perkin Elmer Victor Wallac II fluorescence microplate reader, using 485 nm and 535 nm filters for excitation and emission, respectively. All values were corrected for background fluorescence. Cellular doxorubicin contents were calculated with the aid of standard amounts, and corrected for differences in protein content, as determined with the BCA assay (see, e.g., Smith et al., 1985).

A431 cells [2] = test: Membrane leakage assay (LDH release); format: cell-based, human; conditions: for LDH release: 100 μM lipid
Method: To investigate (loss of) plasma membrane integrity, the release of the cytosolic enzyme LDH into phenol red-free cell culture medium was monitored. Flat-bottom 96-well plates containing (liposome-treated) A431 cells were centrifuged (2000 rpm, 5 minutes at 20° C.) and 50 μl aliquots of the supernatants were assessed for LDH activity with the CytoTox 96 kit, according the manufacturer's instructions. Values obtained from cells that were lysed in 0.8% Triton X-100 served as positive control. All data were corrected for protein contents, as determined with the BCA assay (see, e.g., Smith et al., 1985).

A431 cells [3] = test: Cell viability (MTT assay); format: cell-based, human; conditions: for viability after 24 hour exposure: 24 hour exposure to 20 μM lipid
Method: For viability assessment, A431 cells were cultured in flat-bottom 96-well plates. After experimental treatments, 100 μg of the mitochondrial dehydrogenase substrate MTT was added to each well (see, e.g., Carmichael et al., 1987). Cells were then incubated for 60 minutes at 37° C. After centrifugation (3000 rpm, 10 minutes at 4° C.) supernatants were removed. The precipitated blue formazan products were then dissolved in 100 μl DMSO, and absorbencies were read in a Bio-Tek Instruments EL 340 photospectrometric microplate reader at 540 nm. Background absorbencies were subtracted and values from wells containing untreated control cells were set at 100% viability.

CCCCCCCCCCCCC/C=C/[C@@H](OC)[C@H](COP(=O)([O-])OCC[N+](C)(C)C)NC(=O)CCCCCCC [3-O-methyl-C8-SM]
doxorubicin uptake, mean % ± SD (sphingomyelins) (BAEC): 249.8 ± 36.5%

CCCCCCCCCCCCC/C=C/[C@@H](O)C(N)CO[C@H]1O[C@H](CO)[C@@H](O[C@@H]2O[C@H](CO)[C@H](O)[C@H](O)[C@H]2O)[C@H](O)[C@@H]1O (stereo partly drawn) [C0-LacCer]
doxorubicin uptake, mean % ± SD (glycosphingolipids) (BAEC): 93.8 ± 4.0%

CCCCCCCCCCCCC/C=C/[C@@H](O)[C@H](CO)NC(=O)CCCCC [C6-Cer]
doxorubicin uptake, mean % ± SD (sphingomyelins) (BAEC): 96.6 ± 17.3%

CCCCCCCCCCCCC/C=C/[C@@H](O)[C@H](COP(=O)(O)O)NC(=O)CCCCCCC [C8-Cer-1-P]
doxorubicin uptake, mean % ± SD (sphingomyelins) (BAEC): 122.2 ± 7.2%

CCCCCCCCCCCCC/C=C/[C@@H](O)[C@@H](N)CO [sphingosine, (2S,3R,4E)-2-amino-4-octadecene-1,3-diol]
doxorubicin uptake, mean % ± SD (sphingomyelins) (BAEC): 100.4 ± 20.3%

CCCCCCCCCCCCC/C=C/[C@@H](O)[C@@H](N)CO[C@@H]1O[C@H](CO)[C@@H](O)[C@H](O)[C@H]1O [C0-GlcCer]
doxorubicin uptake, mean % ± SD (glycosphingolipids) (BAEC): 86.7 ± 16.2%

CCCCCCCCCCCCCC=CC(O)C(COC1OC(CO)C(OC2OC(CO)C(O)C(O)C2O)C(O)C1O)NC(=O)CCCCCCC (stereo not drawn) [C8-LacCer]
doxorubicin uptake, mean % ± SD (glycosphingolipids) (BAEC): 301.5 ± 41.2%

CCCCCCCCCCCCCC=CC(O)C(COC1OC(CO)C(O)C(O)C1O)NC(=O)CCCCCCCCCCC (stereo not drawn) [C12-GlcCer]
doxorubicin uptake, mean % ± SD (glycosphingolipids) (BAEC): 85.6 ± 12.0%

CCCCCCCCCCCCC/C=C/[C@@H](O)[C@H](COP(=O)([O-])OCC[N+](C)(C)C)NC(=O)CCCCC [C6-SM, N-hexanoyl-sphingomyelin]
uptake of free doxorubicin (A431 cells [1]): 461.8±126.9%
LDH release (A431 cells [2]): 53.9±7.9%
LDH release (of total LDH activity) (A431 cells [2]; 1 hour incubation with 10 μM lipid, 0.8% Triton X-100 = 100%): 0.5±0.5%
viability after 24 hour exposure (A431 cells [3]): 29.3±5.5%
viable cells (A431 cells [3]; determined 24 hours after a 1 hour incubation with 10 μM lipid): 95.6±19.1%
doxorubicin uptake, mean % ± SD (sphingomyelins) (BAEC): 330.6 ± 92.3%

CCCCCCCCCCCCC/C=C/[C@@H](O)[C@H](COC1OC(CO)C(O)C(O)C1O)NC(=O)CCCCCCC (stereo partly drawn) [C8-GlcCer, N-octanoyl-glucosylceramide]
uptake of free doxorubicin (A431 cells [1]): 271.7±58.5%
LDH release (A431 cells [2]): 0.0±0.6%
viability after 24 hour exposure (A431 cells [3]): 71.3±5.3%
doxorubicin uptake, mean % ± SD (glycosphingolipids) (BAEC): 335.8 ± 88.5%

CCCCCCCCCCCCCC=CC(O)C(COC1OC(CO)C(O)C(O)C1O)NC(=O)CCCCCCC (stereo not drawn) [C8-GalCer]
doxorubicin uptake, mean % ± SD (glycosphingolipids) (BAEC): 213.7 ± 31.1%

CCCCCCCCCCCCC/C=C/[C@@H](O)[C@@H](N)CO[C@@H]1O[C@H](CO)[C@H](O)[C@H](O)[C@H]1O [C0-GalCer]
doxorubicin uptake, mean % ± SD (glycosphingolipids) (BAEC): 98.2 ± 9.3%

CCCCCCCCCCCCC/C=C/[C@@H](O)[C@@H](N)COP(=O)([O-])OCC[N+](C)(C)C [C0-SM (SPC)]
doxorubicin uptake, mean % ± SD (sphingomyelins) (BAEC): 128.3 ± 19.5%

— patent publication US7915227B2, “Pharmaceutical formulations employing short-chain sphingolipids and their use” (Het Nederlands Kanker Instituut, priority 2003, dated 2011)
